Test results as given in patent US11364258B2, “Methods for treating chondrosarcoma using microrna(miR)” (Rhode Island Hospital, priority 2016, dated 2022).

Columns and labels:
VEGF [1] = assay: ELISA of VEGF expression in chondrosarcoma cells after transfection; format: cell-based, human
Method: (§1) Cell lines: Human primary chondrocytes and chondrosarcoma cell lines were cultured as previously described (Kulshreshtha et al., Cell Cycle. 2007; 6:1426-1431). CS-1 (a gift from Dr. Francis Hornicek, Harvard Medical School, Boston, Mass.) was cultured in Gibco RPMI 1640 Medium (Life Technologies, Grand Island, N.Y.), with 10% FBS in a humidified incubator (NuAire Inc, Plymouth, Minn.) under 5% CO2 and either normoxia (ambient oxygen) or hypoxia (2% O2)(11). CS-1 was derived from human grade III chondrosarcoma and metastasizes in a xenograft mouse model(Susa M, Morii T, Yabe H, Horiuchi K, Toyama Y, Weissbach L, et al. Alendronate inhibits growth of high-grade chondrosarcoma cells. Anticancer Res. 2009 June; 29(6):1879-88.). All cells were cultured in a humidified incubator (NuAire Inc, Plymouth, Minn., USA) under 5% CO2 and either normoxia or hypoxia (2% O2) (Lin et al., J Orthop Res. 2004; 22:1175-1181).
Transfections were performed with GenMute transfection reagent (SignaGen Laboratories, Gaithersburg, Md.). pmiRZIP lentivector expressing anti-miR-181a or control sequence (SBI, Mountain View, Calif.) was used for permanent miR-181a knockdown experiments. Transduction-ready FIV-based pseudoviral particles were generated using pPACK-H1 Lentivector Packaging System together with 293TN cell line (SBI), at a titer of 1.06×10^9 IFU/ml. Control was Lenti-scramble Hairpin control pseudoviral particles at a titer of 1×10^9 IFU/ml. Cells were cultured in 12-well plates at a density of 1×10^5/well for 1 day, infected by pseudoviral particles (using a multiplicity of infection of 100 viruses per cell) and cultured for 72 hrs, then selected for puromycin (5 μg/ml) resistance for stable cell lines. Stably transduced cells were used for vitro and in vivo experiments.
ELISA: Conditioned medium was obtained 72 hours after transfection. Soluble VEGF-165 and MMP1 were detected using VEGF and MMP1 Immunoassay kits (R&D Systems, Minneapolis, Minn.) according to manufacturer's instructions. VEGF-165 and MMP1 levels were measured two times for each condition and with normalization to the number of cells at the end of the culture period. Each experiment was repeated three times. Twenty mg of xenograft tumor tissue in RIPA buffer containing proteinase inhibitors (Roche) was homogenized on ice using TissueRuptor (Qiagen). Tissue lysates were centrifuge at 14000 rpm for 30 min, supernatant saved at −80° C. for later use. VEGF-165 levels in xenograft tumor lysates were normalized to total protein.

chondrosarcoma cells = assay: CyQUANT cell proliferation assay; format: cell-based, human
Method: as §1
Cell proliferation assay: CyQUANT® Cell Proliferation Assay Kit according to manufacturer's protocol

SSX1 = assay: qRT-PCR of SSX1 mRNA in chondrosarcoma cells; format: cell-based, human; conditions: 20 nM; vs control cells or anti-miR-34a; FIG. 10A
Method: qRT-PCR: miR expression evaluated with qRT-PCR using Hs_miR-181a primer 5′-AACAUUCAACGCUGU-CGGUGAGU-3′ (SEQ ID NO:198) and 1280: 5′UCCCACCGCUGCCACCC-3′ (SEQ ID NO:199) (Qiagen). The comparative threshold cycle (Ct) method, i.e., 2-ΔΔCt method is used to calculate fold amplification. For quantification of mRNA, total RNA was isolated from chondrocytes, CS-1 cells, and xenograft mouse tumors using the RNAqueous® Kit (Ambion, Austin, Tex., USA). SYBR real-time PCR was carried out using two-step real-time qRT-PCR (Qiagen) with normalization to 18S rRNA (18S). The comparative threshold cycle (Ct) method, i.e., the 2-ΔΔCt method, was used for the calculation of fold amplification. Each experiment was evaluated with three PCR reactions and each experiment was repeated three times, the sample size necessary to maintain power at 0.80 to detect a 50% decrease with an alpha of 0.025 (one-tailed t-test).
ELISA, western blot, qRT-PCR, and cell proliferation assays were performed as described above.

VEGF [2] = assay: Angiogenesis antibody array in chondrosarcoma cells (VEGF); format: cell-based, human; conditions: vs miR control; FIG. 3
Method: (§2) Angiogenesis antibody array: Human Angiogenesis Array Kit is a membrane-based sandwich immunoassay. Samples are mixed with a cocktail of biotinylated detection antibodies and then incubated with the array membrane which is spotted in duplicate with capture antibodies to specific target proteins. Captured proteins are visualized using chemiluminescent detection reagents. The signal produced is proportional to the amount of bound analyte. It is sensitive and economical tool to simultaneously detect the relative levels of 55 angiogenesis-related proteins in a single sample.

[3] = system: placental growth factor (PLGF); assay: Angiogenesis antibody array in chondrosarcoma cells (PLGF); format: cell-based, human; conditions: vs miR control; FIG. 3
Method: as §2

thrombospondin-1 (TSP-1) = assay: Angiogenesis antibody array in chondrosarcoma cells (TSP-1); format: cell-based, human; conditions: vs miR control; FIG. 3
Method: as §2

Met = assay: Western blot of Met protein in chondrosarcoma cells; format: cell-based, human; conditions: vs miRNA control; FIG. 5
Text: Western blot: Cell or tumor lysates containing forty μg of protein were separated via SDS-PAGE (Bio-Rad, Hercules, Calif.) and probed with antibodies for VEGF (VEGFA), MMP-1, SSX, and actin (Santa Cruz Biotechnology, Santa Cruz, Calif.). The fluorescent signals were detected using a fluorescently-labeled secondary goat anti-rabbit antibody (Alexa Fluor 680) (Molecular Probes, Eugene, Oreg.) and analyzed on Licor Odyssey Scanner (LI-COR Biosciences, Lincoln, Nebr.). Western Blot analyses were performed as previously described with specific antibodies (IMGNEX, San Diego, Calif.) and actin antibody (Santa Cruz Biotechnology, Santa Cruz, Calif.). Protein concentrations were determined using the Quick Start Bradford protein assay (Bio-Rad).

metastasis = conditions: literature (Sun et al. 2013; Smith et al. 2004); cited from earlier work

With “miR-34a: miR-34a mimic, the same sequence as miR-34a (guide AACAUUCAACGCUGUCGGUGAGU; synthetic mimic, further chemistry not given here)” the “VEGF protein expression (ELISA, western blot)” value (VEGF [1]; 20 nM, vs control miR, control anti-miR or anti-miR-34a, FIG. 7A-7C, p<0.02, n=3) was “significantly decreased expression of VEGF protein”, the “VEGF expression over time (ELISA)” value (VEGF [1]; secreted VEGF, vs control miR, FIG. 8, p<0.001) was “decreased VEGF expression over time” and the “chondrosarcoma cell growth rates over time” value (chondrosarcoma cells; miR-34a vs control miR, FIG. 9, p<0.001) was “significantly decreased growth rates over time”. For the same compound, the “SSX1 mRNA expression (qRT-PCR)” value (SSX1) was “decreased SSX1 mRNA expression”.
With “miR-126: miScript miRNA mimic of miR-126; mature sequence SEQ ID NO: 188 CAUUAUUACUUUUGGUACGCG (listed as RNA, chemistry not given here)” the “VEGF expression after transient transfection (ELISA)” value (VEGF [1]; 20 nM miR-126, 80 nM anti-miR-126, normoxic and hypoxic conditions, FIG. 2 bottom) was “reduced VEGF expression”, the “VEGF expression (ELISA)” value (VEGF [1]; 10-80 nM of miR-126, normoxia and hypoxia (2% oxygen), FIG. 2 top) was “inhibited VEGF expression in a dose-dependent manner” and the “VEGF expression (angiogenesis antibody array)” value (VEGF [2]) was “reduces the expression”. For the same compound, the “PLGF expression (angiogenesis antibody array)” value [3] was “reduces the expression”, the “TSP-1 expression (angiogenesis antibody array)” value (thrombospondin-1 (TSP-1)) was “reduces the expression” and the “Met protein expression (western blot)” value (Met) was “expression of Met protein decreased”. For the same compound, the “chondrosarcoma cell growth over time” value (chondrosarcoma cells; 20 nM miR-126 vs control miR, FIG. 6) was “grew more slowly over time”.
In the case of `c1cc(CN2CCCNCCNCCCNCC2)ccc1CN1CCCNCCNCCCNCC1` [AMD3100, plerixafor], the metastasis in mice (metastasis) is given as “reduce metastasis”.
